Where a SMILES comes first, the peptide text is derived from it.
Experiment: Motilin immunoreactivity concentration in plasma, half-life after intravenous administration (Example 8)
Details: rat, in vivo, iv, 10 nmol/kg
Procedure: The experiment was carried out using rats into which polyethylene tube (PE-50 manufactured by Clay Adams) was inserted into thigh artery under an anesthetized condition with Nembutal. As to a test system, male SD strain rats (Nippon Charles River) of 7 weeks age were used where one group comprised 3 rats. Human motilin or a derivative thereof in a dose of 10 nmol/kg was administered into tail vein of the rat and the blood before the administration and until 60 minutes after the administration was periodically collected by a polyethylene tube inserted into the thigh artery. To the collected blood were added EDTA (manufactured by Dojin Laboratories) and aprotinin (manufactured by Bayer) as a stabilizer and an anti-coagulant, respectively and the plasma was separated therefrom by centrifugal separation. Motilin immunoreactivity concentration in plasma was measured by a competitive radioimmunoassay (RIA) (FIG. 8). At that time, a rabbit polyclonal antibody (#870623) which specifically recognizes the amino acid numbers 1 to 12 of native motilin shown by SEQ ID No: 102 was used as an antibody and, as a labeled compound, ^125I-[Tyr^7] human motilin was used.

half-life (male, SD) | half-life | Compound
10.7 min |  | CC[C@H](C)[C@H](NC(=O)[C@@H]1CCCN1C(=O)[C@@H](NC(=O)[C@@H](N)Cc1ccccc1)C(C)C)C(=O)N[C@@H](Cc1ccccc1)C(=O)N[C@H](C(=O)N[C@@H](Cc1ccc(O)cc1)C(=O)NCC(=O)N[C@@H](CCC(=O)O)C(=O)N[C@@H](CC(C)C)C(=O)N[C@@H](CCC(N)=O)C(=O)N[C@@H](CCCNC(=N)N)C(=O)N[C@H](C(=O)N[C@@H](CCC(N)=O)C(=O)N[C@@H](CCC(N)=O)C(=O)N[C@@H](CCCNC(=N)N)C(=O)N[C@@H](CCCCN)C(=O)NCC(=O)NCC(=O)N[C@@H](CCC(=O)O)C(=O)N[C@@H](CO)C(=O)NCC(=O)N[C@@H](CCCCN)C(=O)N[C@@H](CCCCN)C(=O)N1CCC[C@H]1C(=O)N1CCC[C@H]1C(=O)N[C@@H](C)C(=O)N[C@@H](CCCCN)C(=O)N[C@@H](CC(C)C)C(=O)N[C@@H](CCC(N)=O)C(=O)N1CCC[C@H]1C(=O)N[C@@H](CCCNC(=N)N)C(=O)O)C(C)C)[C@@H](C)O [Chimeric motilin (III) (MG-i17G2-19iG)] (H-FVPIFTYGELQRVQQRKGGESGKKPPAKLQPR-OH; N-terminus and C-terminus assumed)
 | 7.73 min | CC[C@H](C)[C@H](NC(=O)[C@@H]1CCCN1C(=O)[C@@H](NC(=O)[C@@H](N)Cc1ccccc1)C(C)C)C(=O)N[C@@H](Cc1ccccc1)C(=O)N[C@H](C(=O)N[C@@H](Cc1ccc(O)cc1)C(=O)NCC(=O)N[C@@H](CCC(=O)O)C(=O)N[C@@H](CC(C)C)C(=O)N[C@@H](CCC(N)=O)C(=O)N[C@@H](CCCNC(=N)N)C(=O)N[C@H](C(=O)N[C@@H](CCC(N)=O)C(=O)N[C@@H](CCC(N)=O)C(=O)N[C@@H](CCCNC(=N)N)C(=O)N[C@@H](CCCCN)C(=O)N[C@@H](CCC(=O)O)C(=O)N[C@@H](CO)C(=O)N[C@@H](CCCCN)C(=O)N[C@@H](CCCCN)C(=O)N[C@@H](C)C(=O)N[C@@H](CCCCN)C(=O)N[C@@H](CC(C)C)C(=O)N[C@@H](CCC(N)=O)C(=O)N1CCC[C@H]1C(=O)N[C@@H](CCCNC(=N)N)C(=O)O)C(C)C)[C@@H](C)O [Chimeric motilin (IV)(MG-dPP)] (H-FVPIFTYGELQRVQQRKESKKAKLQPR-OH; N-terminus and C-terminus assumed)
4.39 min |  | CC[C@H](C)[C@H](NC(=O)[C@H](CCSC)NC(=O)[C@H](CCCCN)NC(=O)[C@H](CCCCN)NC(=O)[C@H](CO)NC(=O)[C@H](CCC(=O)O)NC(=O)[C@H](CCCCN)NC(=O)[C@H](CCCNC(=N)N)NC(=O)[C@H](CCC(N)=O)NC(=O)[C@H](CCC(N)=O)NC(=O)[C@@H](NC(=O)[C@H](CCCNC(=N)N)NC(=O)[C@H](CCC(N)=O)NC(=O)[C@H](CC(C)C)NC(=O)[C@H](CCC(=O)O)NC(=O)CNC(=O)[C@H](Cc1ccc(O)cc1)NC(=O)[C@@H](NC(=O)[C@H](Cc1ccccc1)NC(=O)[C@@H](NC(=O)[C@@H]1CCCN1C(=O)[C@@H](NC(=O)[C@@H](N)Cc1ccccc1)C(C)C)[C@@H](C)CC)[C@@H](C)O)C(C)C)C(=O)N[C@H](C(=O)N[C@H](C(=O)N[C@@H](CCCNC(=N)N)C(=O)O)[C@@H](C)CC)[C@@H](C)O [Chimeric motilin (IX)(MG-dPPS)] (H-FVPIFTYGELQRVQQRKESKKMITIR-OH; N-terminus and C-terminus assumed)
9.12 min |  | CC[C@H](C)[C@H](NC(=O)[C@@H]1CCCN1C(=O)[C@@H](NC(=O)[C@@H](N)Cc1ccccc1)C(C)C)C(=O)N[C@@H](Cc1ccccc1)C(=O)N[C@H](C(=O)N[C@@H](Cc1ccc(O)cc1)C(=O)NCC(=O)N[C@@H](CCC(=O)O)C(=O)N[C@@H](CC(C)C)C(=O)N[C@@H](CCC(N)=O)C(=O)N[C@@H](CCCNC(=N)N)C(=O)N[C@H](C(=O)N[C@@H](CCC(N)=O)C(=O)N[C@@H](CCC(N)=O)C(=O)N[C@@H](CCCNC(=N)N)C(=O)N[C@@H](CCCCN)C(=O)N[C@@H](CCC(=O)O)C(=O)N[C@@H](CCCCN)C(=O)N[C@@H](CCCCN)C(=O)N1CCC[C@H]1C(=O)N1CCC[C@H]1C(=O)N[C@@H](C)C(=O)N[C@@H](CCCCN)C(=O)N[C@@H](CC(C)C)C(=O)N[C@@H](CCC(N)=O)C(=O)N1CCC[C@H]1C(=O)N[C@@H](CCCNC(=N)N)C(=O)O)C(C)C)[C@@H](C)O [Chimeric motilin (N)(MG-dS)] (H-FVPIFTYGELQRVQQRKEKKPPAKLQPR-OH; N-terminus and C-terminus assumed)
7.73 min |  | CC[C@H](C)[C@H](NC(=O)[C@@H]1CCCN1C(=O)[C@@H](NC(=O)[C@@H](N)Cc1ccccc1)C(C)C)C(=O)N[C@@H](Cc1ccccc1)C(=O)N[C@H](C(=O)N[C@@H](Cc1ccc(O)cc1)C(=O)NCC(=O)N[C@@H](CCC(=O)O)C(=O)N[C@@H](CC(C)C)C(=O)N[C@@H](CCC(N)=O)C(=O)N[C@@H](CCCNC(=N)N)C(=O)N[C@H](C(=O)N[C@@H](CCC(N)=O)C(=O)N[C@@H](CCC(N)=O)C(=O)N[C@@H](CCCNC(=N)N)C(=O)N[C@@H](CCCCN)C(=O)N[C@@H](CCC(=O)O)C(=O)N[C@@H](Cc1ccccc1)C(=O)N[C@@H](CCCCN)C(=O)N[C@@H](CCCCN)C(=O)N1CCC[C@H]1C(=O)N1CCC[C@H]1C(=O)N[C@@H](C)C(=O)N[C@@H](CCCCN)C(=O)N[C@@H](CC(C)C)C(=O)N[C@@H](CCC(N)=O)C(=O)N1CCC[C@H]1C(=O)N[C@@H](CCCNC(=N)N)C(=O)O)C(C)C)[C@@H](C)O [Chimeric motilin (O)(MG-18S/F)] (H-FVPIFTYGELQRVQQRKEFKKPPAKLQPR-OH; N-terminus and C-terminus assumed)
9.67 min |  | CC[C@H](C)[C@H](NC(=O)[C@@H]1CCCN1C(=O)[C@@H](NC(=O)[C@@H](N)Cc1ccccc1)C(C)C)C(=O)N[C@@H](Cc1ccccc1)C(=O)N[C@H](C(=O)N[C@@H](Cc1ccc(O)cc1)C(=O)NCC(=O)N[C@@H](CCC(=O)O)C(=O)N[C@@H](CC(C)C)C(=O)N[C@@H](CCC(N)=O)C(=O)N[C@@H](CCCNC(=N)N)C(=O)N[C@H](C(=O)N[C@@H](CCC(N)=O)C(=O)N[C@@H](CCC(N)=O)C(=O)N[C@@H](CCCNC(=N)N)C(=O)N[C@@H](CCCCN)C(=O)N[C@@H](CCC(=O)O)C(=O)N[C@H](C(=O)N[C@@H](CCCCN)C(=O)N[C@@H](CCCCN)C(=O)N1CCC[C@H]1C(=O)N1CCC[C@H]1C(=O)N[C@@H](C)C(=O)N[C@@H](CCCCN)C(=O)N[C@@H](CC(C)C)C(=O)N[C@@H](CCC(N)=O)C(=O)N1CCC[C@H]1C(=O)N[C@@H](CCCNC(=N)N)C(=O)O)[C@@H](C)O)C(C)C)[C@@H](C)O [Chimeric motilin (P)(MG-18S/T)] (H-FVPIFTYGELQRVQQRKETKKPPAKLQPR-OH; N-terminus and C-terminus assumed)
9.65 min |  | CC[C@H](C)[C@H](NC(=O)[C@@H]1CCCN1C(=O)[C@@H](NC(=O)[C@@H](N)Cc1ccccc1)C(C)C)C(=O)N[C@@H](Cc1ccccc1)C(=O)N[C@H](C(=O)N[C@@H](Cc1ccc(O)cc1)C(=O)NCC(=O)N[C@@H](CCC(=O)O)C(=O)N[C@@H](CC(C)C)C(=O)N[C@@H](CCC(N)=O)C(=O)N[C@@H](CCCNC(=N)N)C(=O)N[C@H](C(=O)N[C@@H](CCC(N)=O)C(=O)N[C@@H](CCC(N)=O)C(=O)N[C@@H](CCCNC(=N)N)C(=O)N[C@@H](CCCCN)C(=O)N[C@@H](CCC(=O)O)C(=O)N1CCC[C@H]1C(=O)N[C@@H](CCCCN)C(=O)N[C@@H](CCCCN)C(=O)N1CCC[C@H]1C(=O)N1CCC[C@H]1C(=O)N[C@@H](C)C(=O)N[C@@H](CCCCN)C(=O)N[C@@H](CC(C)C)C(=O)N[C@@H](CCC(N)=O)C(=O)N1CCC[C@H]1C(=O)N[C@@H](CCCNC(=N)N)C(=O)O)C(C)C)[C@@H](C)O [Chimeric motilin (Q)(MG-18S/P)] (H-FVPIFTYGELQRVQQRKEPKKPPAKLQPR-OH; N-terminus and C-terminus assumed)
9.13 min |  | CC[C@H](C)[C@H](NC(=O)[C@@H]1CCCN1C(=O)[C@@H](NC(=O)[C@@H](N)Cc1ccccc1)C(C)C)C(=O)N[C@@H](Cc1ccccc1)C(=O)N[C@H](C(=O)N[C@@H](Cc1ccc(O)cc1)C(=O)NCC(=O)N[C@@H](CCC(=O)O)C(=O)N[C@@H](CC(C)C)C(=O)N[C@@H](CCC(N)=O)C(=O)N[C@@H](CCCNC(=N)N)C(=O)N[C@H](C(=O)N[C@@H](CCC(N)=O)C(=O)N[C@@H](CCC(N)=O)C(=O)N[C@@H](CCCNC(=N)N)C(=O)N[C@@H](CCCCN)C(=O)N[C@@H](CCC(=O)O)C(=O)N[C@@H](CC(C)C)C(=O)N[C@@H](CCCCN)C(=O)N[C@@H](CCCCN)C(=O)N1CCC[C@H]1C(=O)N1CCC[C@H]1C(=O)N[C@@H](C)C(=O)N[C@@H](CCCCN)C(=O)N[C@@H](CC(C)C)C(=O)N[C@@H](CCC(N)=O)C(=O)N1CCC[C@H]1C(=O)N[C@@H](CCCNC(=N)N)C(=O)O)C(C)C)[C@@H](C)O [Chimeric motilin (R)(MG-18S/L)] (H-FVPIFTYGELQRVQQRKELKKPPAKLQPR-OH; N-terminus and C-terminus assumed)
9.29 min |  | CC[C@H](C)[C@H](NC(=O)[C@@H]1CCCN1C(=O)[C@@H](NC(=O)[C@@H](N)Cc1ccccc1)C(C)C)C(=O)N[C@@H](Cc1ccccc1)C(=O)N[C@H](C(=O)N[C@@H](Cc1ccc(O)cc1)C(=O)NCC(=O)N[C@@H](CCC(=O)O)C(=O)N[C@@H](CC(C)C)C(=O)N[C@@H](CCC(N)=O)C(=O)N[C@@H](CCCNC(=N)N)C(=O)N[C@H](C(=O)N[C@@H](CCC(N)=O)C(=O)N[C@@H](CCC(N)=O)C(=O)N[C@@H](CCCNC(=N)N)C(=O)N[C@@H](CCCCN)C(=O)N[C@@H](CCC(=O)O)C(=O)N[C@@H](C)C(=O)N[C@@H](CCCCN)C(=O)N[C@@H](CCCCN)C(=O)N1CCC[C@H]1C(=O)N1CCC[C@H]1C(=O)N[C@@H](C)C(=O)N[C@@H](CCCCN)C(=O)N[C@@H](CC(C)C)C(=O)N[C@@H](CCC(N)=O)C(=O)N1CCC[C@H]1C(=O)N[C@@H](CCCNC(=N)N)C(=O)O)C(C)C)[C@@H](C)O [Chimeric motilin (S)(MG-18S/A)] (H-FVPIFTYGELQRVQQRKEAKKPPAKLQPR-OH; N-terminus and C-terminus assumed)
